Source: patent publication EP0231622B1, “Inhibition of the 5-lipoxygenase pathway” (priority 1985, dated 1987)
pIC50: −log10 of the molar value. Marks after values point to notes of the source that are not given here.

What was measured:
[1] = tested on: Polymorphonuclear Leukocytes; assay: Mouse Carrageenan Peritonitis (PMN infiltration); assay type: in vivo, Balb/c mice; conditions: Table 3, p.o.
Excerpt: In the following Examples where mice were used, they were male Balb/c mice (20-28 g), and where rats were used, they were male Lewis rats (180-210 g). All mice and rats were obtained from Charles River Breeding Laboratories, Kingston, N.Y. Within a single experiment, mice and rats were sex and age matched.
The compounds of Formula (IA) were used either as the free base or in the appropriate salt form. Levamisole was used as the hydrochloride salt. The compounds were homogenized in 0.5% tragacanth. Compounds were administered by gavage at the indicated dose in a final volume of 10 ml/kg. Nordihydroguaiaretic acid (NDGA) was solubilized in dimethylacetamide and diluted with olive oil for subcutaneous administration.
Mice were pretreated with either the test compound or vehicle one hour before the intraperitoneal injection of a 1.0% carrageenan suspension in saline (0.2 ml/ mouse). Mice were sacrificed by cervical dislocation two hours after injection, and 3.0 ml of phosphate buffered saline, without Ca⁺⁺ or Mg⁺⁺, was injected into the peritoneum. Following massage, a 2.0 ml aliquot of the lavage fluid was removed, and the total cell count determined on a Coulter counter and differential cell count determined by microscopic examination of Giesma-stained slides.

[2] = biological target: T1, 5-Lipoxygenase (Rattus norvegicus, UniProt P12527); assay: 5-HETE production by RBL-1 high speed supernatant; assay type: biochemical; conditions: for pIC50: Table 8A, RBL-1 high speed supernatant
T1 construct: The activities of these enzymes in extracts of RBL-1 cells were assayed; host or cells: RBL-1 cells, disrupted by nitrogen cavitation; 10,000 x g or 100,000 x g supernatant
T1 sequence (P12527 1-673): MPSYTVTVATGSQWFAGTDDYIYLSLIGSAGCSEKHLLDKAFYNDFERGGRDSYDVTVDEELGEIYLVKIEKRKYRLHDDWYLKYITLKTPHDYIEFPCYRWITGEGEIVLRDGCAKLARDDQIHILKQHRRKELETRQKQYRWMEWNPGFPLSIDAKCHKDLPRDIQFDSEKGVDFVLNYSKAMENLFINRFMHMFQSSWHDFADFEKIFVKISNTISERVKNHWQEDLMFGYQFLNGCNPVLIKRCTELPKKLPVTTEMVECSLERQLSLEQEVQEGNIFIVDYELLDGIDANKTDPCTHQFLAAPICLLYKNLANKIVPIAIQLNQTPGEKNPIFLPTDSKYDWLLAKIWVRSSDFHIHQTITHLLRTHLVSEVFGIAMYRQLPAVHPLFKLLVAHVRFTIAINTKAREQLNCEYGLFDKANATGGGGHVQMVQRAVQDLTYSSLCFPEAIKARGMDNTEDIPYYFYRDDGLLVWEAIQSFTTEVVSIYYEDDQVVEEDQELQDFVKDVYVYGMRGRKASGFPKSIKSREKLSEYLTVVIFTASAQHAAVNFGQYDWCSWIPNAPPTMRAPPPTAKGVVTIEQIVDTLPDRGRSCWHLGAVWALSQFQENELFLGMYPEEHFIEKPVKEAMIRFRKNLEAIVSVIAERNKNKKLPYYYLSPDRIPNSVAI
Experimental: (§1) For in vitro experiments, compounds were dissolved at appropriate concentrations in ethanol or DMSO (dimethylsulfoxide) (final concentration <1.0%) and then diluted to final concentrations using the buffers indicated in the text.
(§2) The activities of these enzymes in extracts of RBL-1 cells were assayed using the method of Jakschik and Lee, Nature, 287, 51-52 (1980). RBL-1 cells were obtained from the American Type Culture Collection (#CRL 1378) and were grown at 37°C (5% CO₂ in air) in spinner culture in MEM supplemented with 10% heat inactivated fetal calf serum. Harvested cells were washed with 50 mM sodium phosphate buffer, pH 7.0, containing 1 mM EDTA and 0.1% gelatin, resuspended in fresh buffer (5 x 10⁷ cells/ml) and disrupted by nitrogen cavitation using the Parr bomb at 750 psi for 10 min. The broken cell extract was then centrifuged at 10,000 x g for 20 minutes and the supernatant centrifuged at 100,000 x g for 60 minutes. Aliquots (0.25 mls) of the supernatant were preincubated with or without drugs for 10 min, after which 10 ul CaCl₂ (50 mM) was added and the reaction was initiated with 2.5 ul of 2.5 mM arachidonic acid-1-¹⁴C (final concentration was […]; specific activity 20,000 dpm/nmole). After incubation for 3 min at 37°C, the reaction was terminated by addition of 2 volumes (0.5 ml) ice cold acetone and the sample was allowed to deproteinize on ice for 10 min prior to centrifugation at 1,000 x g for 10 min. The deproteinized supernatant was adjusted to pH 3.5 with 2N formic acid and extracted with 2 volumes of ice cold ethyl acetate. The extracted samples were dried under argon, redissolved in ethyl acetate and applied to Whatman LK5D thin layer chromatography (TLC) plates which were developed using the A-9 solvent system [organic phase of ethyl acetate: 2,2,5-trimethylpentane:acetic acid: water (110:50:20:10)] described by Hamberg and Samuelsson, J. Biol. Chem., 241, 257-263 (1966). Arachidonic acid, 5-HETE, di-HETE and PGD₂ were quantified with a Berthold LB 2832 autoscanner.
(§3) The 5-lipoxygenase and LTA₄ synthetase activities were further studied under the following conditions. An additional centrifugation of the RBL-1 supernatant was run at 100,000 x g for 60 min, to remove the particulate cyclooxygenase activity. Sample incubation was done under conditions similar to those described above, i.e., 2 mM CaCl₂ and 25 uM arachidonic acid-1-¹⁴C, however, with an incubation time of 5 min at […]. Under these conditions, only the 5-lipoxygenase pathway metabolites were detectable. The 5-HETE and di-HETEs were formed at a linear rate, and […] amounts of the arachidonic acid-1-¹⁴C substrate were utilized.

[3] = biological target: T2, 5-LO (Rattus norvegicus, UniProt P12527); assay: di-HETE production by RBL-1 high speed supernatant; assay type: biochemical; conditions: Table 9A; di-HETE production by RBL-1 high speed supernatant; read-out: 5-LO IC50
T2 construct: The activities of these enzymes in extracts of RBL-1 cells were assayed; host or cells: RBL-1 cells, disrupted by nitrogen cavitation; 10,000 x g or 100,000 x g supernatant
T2 sequence (P12527 1-673): T1 sequence (P12527 1-673)
Experimental: as §1, §2, §3

Compound	pIC50 [2]	pIC50 [3]	other results
CC(=O)OC[C@H]1O[C@@H]([S-])[C@H](OC(C)=O)[C@@H](OC(C)=O)[C@@H]1OC(C)=O.CCP(CC)CC.[Au+] [Auranofin]			PMN x 10⁻⁵/ml (mean ± S.D.) ([1]; 2 (mg Au/kg)): 7.50 ± 1.57 x 10⁻⁵/ml
CCCNc1ccc(-c2nc3n(c2-c2ccncc2)CCS3)cc1 [Compound 2, 6-(4-(1-Propylamino)phenyl)-5-(4-pyridyl)-2,3-dihydroimidazo[2,1-b]thiazole]	4.92	5.15	
c1cc(N2CCCC2)ccc1-c1nc2n(c1-c1ccc(N3CCCC3)cc1)CCS2 [Compound 3, 5,6-bis(4-(1-pyrrolidinyl)phenyl)-2,3-dihydroimidazo[2,1-b] thiazole]	6.64	7.00	
c1cc(N2CCCCC2)ccc1-c1nc2n(c1-c1ccc(N3CCCCC3)cc1)CCS2 [Compound 4, 5,6-bis(4-(1-piperidinyl)phenyl)-2,3-dihydroimidazo[2,1-b] thiazole]	5.92	6.22	
c1cc(-c2c(-c3ccc4c(c3)OCO4)nc3n2CCS3)ccn1 [Compound 5, 5-(4-pyridyl)-6-(3,4-methylenedioxyphenyl)-2,3-dihydroimidazo[2,1-b]thiazole]	5.00	5.00	
CN(C)c1ccc(-c2nc3n(c2-c2ccc(F)cc2)CCS3)cc1 [Compound 6, 6-(4-N,N-dimethylaminophenyl)-5-(4-fluorophenyl)-2,3-dihydroimidazo[2,1-b]thiazole]	6.10	6.22	
c1cc(-c2nc3n(c2-c2ccc4c(c2)OCO4)CCS3)ccn1 [Compound 7, 6-(4-pyridyl)-5-(3,4-methylenedioxyphenyl)-2,3-dihydroimidazo[2,1-b]thiazole]	5.00	5.00	
Fc1ccc(-c2nc3n(c2-c2ccc(F)cc2)CCC3)cc1 [Compound 8, 2,3-Bis(4-fluorophenyl)-6,7-dihydro-5H-pyrrolo[1,2-a]imidazole]	4.92	5.10	
CCN(CC)c1ccc(-c2nc3n(c2-c2ccc(N(CC)CC)cc2)CCS3)cc1 [Compound 9, 5,6-bis(4-N,N-diethylaminophenyl)-2,3-dihydroimidazo [2,1-b]thiazole]	6.46	6.80	
c1cc(-c2nc3n(c2-c2ccncc2)CCS3)ccn1 [Compound 11, 5,6-Bis(4-pyridyl)-2,3-dihydroimidazo(2,1-b)thiazole]	3.96	4.48	
Fc1ccc(-c2c(-c3ccncc3)nc3n2CCS3)cc1 [Compound 12]	4.80	4.77	
N#Cc1ccc(-c2nc3n(c2-c2ccc(C#N)cc2)CCS3)cc1 [Compound 13, 5,6-bis(4-cyanophenyl)-2,3-dihydroimidazo[2,1-b]thiazole]	4.80	4.82	
COc1ccc(-c2nc3n(c2-c2ccc(F)cc2)CCS3)cc1 [Compound 14]	5.70	6.22	
FC(F)(F)c1ccc(-c2nc3n(c2-c2ccc(C(F)(F)F)cc2)CCS3)cc1 [Compound 15]	5.00	5.00	
c1cc2c(cc1-c1nc3n(c1-c1ccc4c(c1)OCO4)CCS3)OCO2 [Compound 16]	5.42	5.82	
CCNc1ccc(-c2nc3n(c2-c2ccc(NCC)cc2)CCS3)cc1 [Compound 17]	7.00	7.00	
COc1ccc(-c2nc3n(c2-c2ccncc2)CCS3)cc1 [Compound 18]	5.27	5.72	

Compound	pIC50 [2]	pIC50 [3]	other results
Fc1ccc(-c2nc3n(c2-c2ccc(F)cc2)CCS3)cc1 [Compound 19]	5.07	5.30	
COc1ccc(-c2nc3n(c2-c2ccc(OC)cc2)CCCS3)cc1 [Compound 20]	5.25	5.25	
COc1ccc(-c2nc3n(c2-c2ccc(OC)cc2)CCS3)cc1 [Compound 21]	5.41	5.55	
COc1ccc(-c2nc3n(c2-c2ccc(OC)cc2)CCC3)cc1 [Compound 22]	5.40		
Fc1ccc(-c2nc3n(c2-c2ccccn2)CCS3)cc1 [Compound 23, 5-(2-pyridinyl)-6-(4-fluorophenyl)-2,3-dihydroimidazo[2,1-b]thiazole]	4.05	4.38	
Fc1ccc(-c2c(-c3ccccn3)nc3n2CCS3)cc1 [Compound 24, 5-(4-fluorophenyl)-6-(2-pyridinyl)-2,3-dihydroimidazo[2,1-b]thiazole]	4.43	4.70	
c1cc(-c2c(-c3ccc(N4CCCC4)cc3)nc3n2CCS3)ccn1 [Compound 25, 5-(4-pyridyl)-6-(4-(pyrrolidin-1-yl)phenyl)-2,3-dihydroimidazo[2,1-b]thiazole]	6.30	6.30	
[O-][S+]1CCn2c1nc(-c1ccc(F)cc1)c2-c1ccncc1 (centres unmarked) [Compound 28, 6-(4-fluorophenyl)-5-(4-pyridyl)-2,3-dihydroimadazo-[2,1-b]thiazole-1-oxide]	3.00	3.00	
O=S1(=O)CCn2c1nc(-c1ccc(F)cc1)c2-c1ccncc1 [Compound 29, 6-(4-fluorophenyl)-5-(4-pyridyl)-2,3-dihydroimidazo[2,1b]thiazole-1,1-dioxide]	4.00	< 4.00	
[O-][S+]1CCn2c1nc(-c1ccc(F)cc1)c2-c1ccc(F)cc1 (centres unmarked) [Compound 30]	4.15	4.22	
O=S1(=O)CCn2c1nc(-c1ccc(F)cc1)c2-c1ccc(F)cc1 [Compound 31]	4.48	> 4.48	
CSc1ccc(-c2nc3n(c2-c2ccc(SC)cc2)CCS3)cc1 [Compound 32]	< 5.00	< 4.00	inhibition at 10 µM ([2]; read-out: % inhibition at 10 μM, 10 μM, 5-HETE production, footnotes of Table 8A): 35 to 40%
CC(=O)Nc1ccc(-c2nc3n(c2-c2ccncc2)CCS3)cc1 [Compound 38, 5-(4-pyridyl)-6-(4-acetamidophenyl)-2,3-dihydroimidazo [(2,1-b)]thiazole]	4.16	4.52	
COc1ccc(-c2nc3n(c2-c2ccc(OC)cc2)CCS3(=O)=O)cc1 [Compound 43]	5.00	5.00	
Nc1ccc(-c2nc3n(c2-c2ccc(N)cc2)CCS3)cc1 [Compound 45, 5,6-bis(4-aminophenyl)-2,3-dihydroimidazo[2,1-b]thiazole]	5.10	5.22	
c1ccc([C@H]2CN3CCSC3=N2)cc1 [Levamisole]			% Change ([1]; 100 mg/kg): -37^b %; PMN x 10⁻⁵/ml (mean ± S.D.) ([1]; 100 mg/kg): 5.88 ± 2.70 x 10⁻⁵/ml
